Test systems include COLO 205 colon; M14 melanoma; SK-MEL-5 melanoma; HOP-62 NSCLC; NCI-H226 lung; K-562 leukemia; MDA-MB-231 breast; SK-OV-3 ovarian; SF-539 CNS; HT29 colon.
Holding throughout (test): DTP human tumour cell line panel, 48 h

Among the data in PubChem BioAssay (NCI) are TGI and GI50 values, retold here.

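Values below derive from 48-hour exposures of cells grown in 96-well plates, with endpoints linearly interpolated between the two concentrations bracketing the appropriate inhibition level. GI50 is the concentration that inhibits growth by half. TGI is the concentration that stops growth completely.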

For orientation: TGI means the concentration giving total growth inhibition. A low value points to greater sensitivity of the cells. The term GI50 denotes the concentration that inhibits growth by half.

On to `C/C(=N\Nc1ccc2ccccc2n1)c1ccccc1O`, for which the TGI in the experiment with COLO 205 colon is over 100 µM; in the experiment with M14 melanoma, over 100 µM; in the experiment with SK-MEL-5 melanoma it was over 100 µM; in the experiment on HOP-62 NSCLC, over 47.9 µM; in the experiment on NCI-H226 lung it was over 100 µM; in the experiment with K-562 leukemia it was over 100 µM. Moreover, the total growth inhibition concentration (TGI) was over 100 µM with MDA-MB-231 breast, over 57.6 µM with SK-OV-3 ovarian, over 100 µM in the experiment with SF-539 CNS and over 100 µM in the experiment with HT29 colon.

On to `COc1ccccc1CNCCCN1C(=O)c2ccc3c4c(ccc(c24)C1=O)C(=O)N(CCCNCCCCNCCCCN)C3=O`, for which the 50% growth inhibitory concentration (GI50) was 0.351 µM in the experiment on COLO 205 colon; 1.87 µM with M14 melanoma; 0.822 µM with SK-MEL-5 melanoma; 1.78 µM with HOP-62 NSCLC; 1.83 µM in the experiment with NCI-H226 lung; 1.02 µM in the experiment with K-562 leukemia. Also, the GI50 is 0.944 µM in the experiment on MDA-MB-231 breast, 2.82 µM in the experiment with SK-OV-3 ovarian, 2.15 µM with SF-539 CNS and 1.35 µM with HT29 colon. Moreover, the TGI was 1.31 µM in the experiment on COLO 205 colon; 4.68 µM in the experiment with M14 melanoma; 2.23 µM with SK-MEL-5 melanoma; 7.64 µM in the experiment on HOP-62 NSCLC; 6.65 µM in the experiment on NCI-H226 lung; over 36.9 µM in the experiment on K-562 leukemia. The TGI with MDA-MB-231 breast is 8.17 µM; in the experiment with SK-OV-3 ovarian it was 14.1 µM; with SF-539 CNS it was 5.5 µM; in the experiment with HT29 colon, over 28.2 µM.

Take `CC1(C)CC[C@]2(C(=O)n3ccnc3)CC[C@]3(C)[C@H](C(=O)C=C4[C@@]5(C)C=C(C#N)C(=O)C(C)(C)[C@@H]5CC[C@]43C)[C@@H]2C1`: the GI50 in the experiment on COLO 205 colon was 0.0139 µM; with M14 melanoma it was 0.0287 µM; in the experiment on SK-MEL-5 melanoma it was 0.0923 µM; with HOP-62 NSCLC, 0.0105 µM; with NCI-H226 lung, under 0.0178 µM; with K-562 leukemia, under 0.01 µM. The concentration for 50% growth inhibition (GI50) is 0.0184 µM with MDA-MB-231 breast, 0.0347 µM with SK-OV-3 ovarian, under 0.0114 µM with SF-539 CNS and under 0.0117 µM in the experiment with HT29 colon. Besides, the concentration for total growth inhibition (TGI) with COLO 205 colon is over 100 µM; with M14 melanoma, 0.196 µM; with SK-MEL-5 melanoma, 0.262 µM; with HOP-62 NSCLC, 0.0402 µM; in the experiment with NCI-H226 lung, under 0.0499 µM; in the experiment on K-562 leukemia, 0.13 µM. Further, the concentration for total growth inhibition (TGI) was 0.0682 µM in the experiment with MDA-MB-231 breast, 0.317 µM in the experiment with SK-OV-3 ovarian and under 0.0336 µM with SF-539 CNS.

Turning to `Cn1cc(C2=C(c3c4n(c5ccccc35)CC(CN)C4)C(=O)NC2=O)c2ccccc21` (stereo not given), the GI50 with COLO 205 colon is 2.59 µM; in the experiment on M14 melanoma it was 3.3 µM; in the experiment with SK-MEL-5 melanoma it was 3.53 µM; with HOP-62 NSCLC, 4.56 µM; with NCI-H226 lung, 3.93 µM; in the experiment with K-562 leukemia, 1.64 µM. For the same molecule, the GI50 in the experiment on MDA-MB-231 breast is 3.78 µM; in the experiment with SK-OV-3 ovarian it was 1.93 µM; with SF-539 CNS it was 2.99 µM; in the experiment on HT29 colon it was 3.04 µM. Besides, the total growth inhibition concentration (TGI) with COLO 205 colon amounted to 6.05 µM; in the experiment with M14 melanoma, 7.33 µM; in the experiment with SK-MEL-5 melanoma, 6.89 µM; with HOP-62 NSCLC, 11 µM; in the experiment with NCI-H226 lung, 18 µM; in the experiment with K-562 leukemia, 17.9 µM. Besides, the total growth inhibition concentration (TGI) with MDA-MB-231 breast is 9.76 µM; in the experiment with SK-OV-3 ovarian, 14.7 µM; in the experiment on SF-539 CNS, 6.24 µM; in the experiment on HT29 colon, 11.8 µM.

Consider `CCOc1cc(C=O)c2c(ccc3ccc(OC)c(OC)c32)c1OC`, for which the total growth inhibition concentration (TGI) in the experiment with COLO 205 colon, with M14 melanoma, in the experiment with SK-MEL-5 melanoma, with NCI-H226 lung, in the experiment with K-562 leukemia and in the experiment with MDA-MB-231 breast was over 100 µM each time. Further, the TGI with SK-OV-3 ovarian and in the experiment on HT29 colon was over 100 µM each time.

In the case of `O=C(CCc1nnc(-c2c(Cl)cccc2Cl)o1)c1nc2ccccc2[nH]1`, the GI50 in the experiment on COLO 205 colon is 2.66 µM; with M14 melanoma, 5.86 µM; in the experiment with SK-MEL-5 melanoma, 2.88 µM; in the experiment with HOP-62 NSCLC, 7.67 µM; in the experiment on NCI-H226 lung it was 6.66 µM; in the experiment with MDA-MB-231 breast, 2.68 µM. Further, the values for the GI50 in the experiment on SK-OV-3 ovarian, in the experiment with SF-539 CNS and in the experiment on HT29 colon were 4.6 µM, 10.5 µM and 3.77 µM, respectively. The TGI stood at 7.08 µM in the experiment on COLO 205 colon; 31.5 µM in the experiment on M14 melanoma; 14.9 µM with SK-MEL-5 melanoma; 41.3 µM in the experiment on HOP-62 NSCLC; 31.2 µM in the experiment on NCI-H226 lung; 42.6 µM in the experiment with MDA-MB-231 breast. Further, the TGI in the experiment with SK-OV-3 ovarian came to 30.5 µM; in the experiment with SF-539 CNS it was 39.6 µM; in the experiment on HT29 colon it was 55.1 µM.

For `O=C1Nc2cc(Cl)ccc2Oc2cc(Oc3ccccc3)ccc21`, the GI50 in the experiment with COLO 205 colon was 5.3 µM; with M14 melanoma, 4.76 µM; in the experiment with SK-MEL-5 melanoma, 3.13 µM; in the experiment on HOP-62 NSCLC, 5.68 µM; in the experiment with NCI-H226 lung, 6.41 µM; in the experiment on MDA-MB-231 breast, 5.5 µM. The values for the GI50 in the experiment on SK-OV-3 ovarian, with SF-539 CNS and with HT29 colon were 4.66 µM, 8.53 µM and 3.22 µM, respectively. For the same molecule, the TGI in the experiment on COLO 205 colon stood at 19.9 µM; in the experiment on M14 melanoma it was 50.2 µM; in the experiment on SK-MEL-5 melanoma, 15.1 µM; with HOP-62 NSCLC it was 20 µM; with NCI-H226 lung, 55.8 µM; in the experiment with MDA-MB-231 breast it was 51.4 µM. Further, the values for the TGI in the experiment on SK-OV-3 ovarian, in the experiment on SF-539 CNS and in the experiment with HT29 colon were 17.4 µM, 40 µM and 18.3 µM, respectively.

Consider `COc1ccc(-c2cc(-c3ccc(O)cc3)nc3nc(=S)[nH]c(N)c23)cc1`, for which the GI50 is 17 µM with COLO 205 colon; 19.7 µM with M14 melanoma; 16.1 µM in the experiment on SK-MEL-5 melanoma; 20.7 µM with HOP-62 NSCLC; 15.7 µM in the experiment with NCI-H226 lung; 16.9 µM with K-562 leukemia. Besides, the GI50 in the experiment with MDA-MB-231 breast was 16.1 µM; in the experiment on SF-539 CNS, 2.46 µM; in the experiment with HT29 colon, 30.1 µM. In addition, the TGI is 50.1 µM in the experiment on COLO 205 colon; 35.4 µM with M14 melanoma; 31 µM with SK-MEL-5 melanoma; 47.5 µM with HOP-62 NSCLC; 36.9 µM with NCI-H226 lung; over 100 µM in the experiment with K-562 leukemia. For the same molecule, the concentration for total growth inhibition (TGI) in the experiment on MDA-MB-231 breast is 57.8 µM; with SF-539 CNS, 17.1 µM; in the experiment with HT29 colon, over 100 µM.

As to `COc1c(OC(C)=O)c(OC(C)=O)cc2c1-c1ccc(OC)c(=O)cc1C(NC(C)=O)CC2` (stereo not given), the TGI with COLO 205 colon was 0.133 µM; in the experiment on M14 melanoma, over 100 µM; in the experiment with SK-MEL-5 melanoma it was 0.0264 µM; with HOP-62 NSCLC, over 73 µM; with NCI-H226 lung it was 1.09 µM; with K-562 leukemia it was over 100 µM. Besides, the TGI is over 100 µM with MDA-MB-231 breast, over 48.1 µM with SK-OV-3 ovarian and 0.173 µM in the experiment with SF-539 CNS.
